Experimental data published in paper PMC12040169 (PLOS Biology, 2025).

Test: in vitro
Conditions: human, hela cells, % viability

| Structure (SMILES) | viability at 28.5 h, 10 µM | viability at 28.5 h, 10 µM (bulk resorufin, single well) |
| --- | --- | --- |
| COc1ccc(-c2c(-c3ccc(O)cc3O)n[nH]c2C)cc1OC [CBK265552] | 81.7% |  |
| O=C(c1ccc(F)cc1)c1ccc(CSc2nnc3sc4ccccc4n23)cc1 [CBK265553] | 85.9% |  |
| NS(=O)(=O)c1ccc(NC(=O)CSc2nc3sc4c(c3c(=O)[nH]2)CCC4)cc1 [CBK265554] | 103% |  |
| NC(=O)C1CCN(C2CC(=O)N(c3cccc([N+](=O)[O-])c3)C2=O)CC1 (stereo not drawn) [CBK265555] | 105% |  |
| O=C(O)c1ccc2c(c1)C(=O)N(Cc1cccc(CN3C(=O)c4ccc(C(=O)O)cc4C3=O)c1)C2=O [CBK265556] | 113% |  |
| O=C1C(=CNCCc2c[nH]c3ccccc23)C(=O)N(c2ccccc2)C(=S)N1c1ccccc1 [CBK265557] |  | 98.5% |
| CCCS(=O)(=O)N1CCN(CCN2C(=O)c3cccc4cccc(c34)C2=O)CC1 [CBK265559] | 81% |  |
| CC(CC(=O)O)CC(=O)Nc1ccc(C(=O)O)cc1 (stereo not drawn) [CBK265560] | 103% |  |
| COc1ccc(Br)cc1/C=C/C(=O)NC(=S)Nc1cc(C(=O)O)ccc1Cl [CBK265564] | 90.7% |  |
| O=C(CCN1C(=O)c2ccccc2C1=O)N(CCO)Cc1ccccc1 [CBK265565] | 110% |  |
| O=C(CSCc1nc(O)c2c3c(sc2n1)CCCC3)Nc1ccc(F)cc1 [CBK265568] | 106% |  |
| CC(C)n1c(NCc2nc3ccccc3n2C)nc2ccccc21 [CBK265571] | 83.6% |  |
| O=C(CN1CCCCC1)Nc1ccc(S(=O)(=O)N2CCOCC2)cc1 [CBK265577] | 90.2% |  |
| O=C(CN1C(=O)c2ccccc2C1=O)Nc1sc2c(c1C(=O)NCC1CCCO1)CCC2 (stereo not drawn) [CBK265583] | 109% |  |
| O=C1NC(=S)N(Cc2ccco2)C(=O)/C1=C\c1ccc(-c2ccc(Cl)c(C(=O)O)c2)o1 [CBK265584] |  | 90.1% |
| COc1ccccc1N(CC(O)CN1C(C)CCCC1C)S(=O)(=O)c1ccccc1 (stereo not drawn) [CBK265585] | 94.4% |  |
| CCOC(=O)COc1cccc(/C=C2/SC(=S)N(c3cccc(C(=O)O)c3)C2=O)c1 [CBK265589] | 98.3% |  |
| O=C(Nc1ccc(S(=O)(=O)NCCc2ccccc2)cc1)c1ccc2c(c1)OCO2 [CBK265591] | 108% |  |
| O=C(O)CCCC(=O)Nc1cc([N+](=O)[O-])ccc1O [CBK265592] | 102% |  |
| O=C(/C=C/c1ccccc1[N+](=O)[O-])NCCN1CCOCC1 [CBK265596] | 97.8% |  |
| Cc1cccc(/N=C2\NC(=O)C(Cc3ccc(C)c(Cl)c3)S2)n1 (stereo not drawn) [CBK265597] | 106% |  |

| Structure (SMILES) | viability at 28.5 h, 10 µM | viability at 28.5 h, 10 µM (bulk resorufin, single well) |
| --- | --- | --- |
| COc1ccccc1C1(CCNCc2ccc3c(c2)OCO3)CCOC(C)(C)C1 (stereo not drawn) [CBK265599G] | 92.3% |  |
| Cc1cc(/C=C2\C(=O)NC(=O)N(Cc3ccccc3Cl)C2=O)c(C)n1-c1ccc(C(=O)O)cc1 [CBK265602] |  | 84.9% |
| O=C(CC(CC(=O)c1ccc(Cl)cc1)c1ccccc1C(=O)O)c1ccc(Cl)cc1 [CBK265604] | 93.6% |  |
| CCN1C(=O)S/C(=C/c2ccc(OCc3cccc(C(=O)O)c3)cc2)C1=O [CBK265605] | 106% |  |
| Cc1ccc(NC(=O)CSc2nc3ccccc3c(=O)n2Cc2ccco2)cc1Cl [CBK265606] | 102% |  |
| CC(C)C(C(=O)Nc1ccc(S(=O)(=O)N2CCOCC2)cc1)N1C(=O)c2ccccc2C1=O (stereo not drawn) [CBK265607] | 97.6% |  |
| COc1ccc(-c2nn(-c3ccccc3)cc2/C=C2\SC(N3CC(C)OC(C)C3)=NC2=O)cc1F (stereo not drawn) [CBK265613] | 100% |  |
| COC(=O)c1c(NC(=O)CC2Nc3ccccc3NC2=O)sc2c1CCC(C(C)(C)C)C2 (stereo not drawn) [CBK265614] | 98.1% |  |
| O=C(O)c1ccc(N2N=C(c3ccccc3)/C(=C\c3cccc([N+](=O)[O-])c3O)C2=O)cc1 [CBK265615] | 102% |  |
| O=C(/C=C/c1ccc(C(=O)Nc2cccnc2)cc1)Nc1cccnc1 [CBK265617] | 66.7% |  |
| COc1ccc(-n2c(SCCc3ccccc3)nnc2-c2ccncc2)cc1 [CBK265618] | 85.3% |  |
| CCOC(=O)/C(C(=O)c1ccccc1)=C(/N)NCCO [CBK265621] | 110% |  |
| CCOc1cc(/C=C2\S/C(=N/c3ccc(S(N)(=O)=O)cc3)NC2=O)c(Br)cc1O [CBK265622] | 95% |  |
| CC(=O)c1ccc(NC(=O)CC2SC(=N)NC2=O)cc1 (stereo not drawn) [CBK265625] | 83.9% |  |
| O=S(=O)(c1cccc2nonc12)N1CCCCCC1 [CBK265627] | 102% |  |
| CC(C)(Oc1ccc(Cl)cc1)C(=O)NCCc1ccc(S(N)(=O)=O)cc1 [CBK265628] | 107% |  |
| Cc1cc(NS(=O)(=O)c2ccc(NC(=O)c3ccc(C(C)(C)C)c(Br)c3)cc2)no1 [CBK265629] | 119% |  |
| COc1ccc(-n2c(SCC(=O)O)nnc2-c2cccs2)cc1 [CBK265636] | 118% |  |
| Cc1cc2ccccc2n2c(SCCC(=O)Nc3ccc(C(C)(C)C)cc3)nnc12 [CBK265639] | 106% |  |
| CN(C)c1ccc(NC(=O)CC2S/C(=N/c3ccccc3)N(c3ccccc3)C2=O)cc1 (stereo not drawn) [CBK265644] | 92.7% |  |
| CC(CC(=O)O)CC(=O)Nc1cccc(C(=O)O)c1 (stereo not drawn) [CBK265651] | 99.1% |  |
